Holding throughout (assay type): cell-based
For one test, the target named is T1, human TLR7 (Homo sapiens, UniProt Q9NYK1).
T1 construct: host or cells: HEK-Blue cells (HEK293-derived reporter line)
T1 sequence (Q9NYK1 27-1049): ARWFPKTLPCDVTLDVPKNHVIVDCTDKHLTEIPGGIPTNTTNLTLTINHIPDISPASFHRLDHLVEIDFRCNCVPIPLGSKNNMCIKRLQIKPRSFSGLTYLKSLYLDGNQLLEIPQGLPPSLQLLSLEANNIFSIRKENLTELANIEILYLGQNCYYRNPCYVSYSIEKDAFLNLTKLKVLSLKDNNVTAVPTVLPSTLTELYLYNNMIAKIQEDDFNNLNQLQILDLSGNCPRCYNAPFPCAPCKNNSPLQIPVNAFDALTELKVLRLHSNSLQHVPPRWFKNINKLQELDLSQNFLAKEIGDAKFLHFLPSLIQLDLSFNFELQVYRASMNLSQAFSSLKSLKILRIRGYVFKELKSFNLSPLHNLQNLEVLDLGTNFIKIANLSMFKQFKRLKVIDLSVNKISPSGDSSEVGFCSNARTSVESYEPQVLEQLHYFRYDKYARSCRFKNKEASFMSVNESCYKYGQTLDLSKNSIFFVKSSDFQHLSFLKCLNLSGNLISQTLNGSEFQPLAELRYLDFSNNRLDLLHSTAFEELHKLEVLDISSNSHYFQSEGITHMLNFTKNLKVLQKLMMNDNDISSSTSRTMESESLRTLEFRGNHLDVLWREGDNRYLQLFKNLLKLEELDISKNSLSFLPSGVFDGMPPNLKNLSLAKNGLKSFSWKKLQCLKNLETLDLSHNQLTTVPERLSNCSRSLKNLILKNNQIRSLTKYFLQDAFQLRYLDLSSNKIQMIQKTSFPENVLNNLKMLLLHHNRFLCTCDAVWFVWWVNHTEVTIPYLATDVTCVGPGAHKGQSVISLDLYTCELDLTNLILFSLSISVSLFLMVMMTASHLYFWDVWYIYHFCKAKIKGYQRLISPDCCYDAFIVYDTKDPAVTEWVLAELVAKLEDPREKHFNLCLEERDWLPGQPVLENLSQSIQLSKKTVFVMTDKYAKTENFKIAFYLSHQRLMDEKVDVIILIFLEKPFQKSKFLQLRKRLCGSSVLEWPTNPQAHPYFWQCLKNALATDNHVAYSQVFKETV
Nature of the test: TLR7 inhibition reporter assay (HEK-Blue cells, secreted embryonic alkaline phosphatase reporter). The following applies: HEK-Blue cells overexpressing human TLR7, stimulated with gardiquimod 7.5 μM; read-out: TLR 7 IC50. The method, boiled down:
(§1)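 Read-out is SEAP colour from HEK-Blue Detection medium after 22 h at 37 °C, converted to percent inhibition between agonist-plus-DMSO and reference-inhibitor wells. Receptor-overexpressing HEK-Blue cells received compound over 0.05 nM–50 μM for 30 min before agonist: gardiquimod 7.5 μM for TLR7, R848 15.9 μM for TLR8, ODN2006 5 nM for TLR9.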

The target in a further test is T2, human TLR9 (Homo sapiens, UniProt Q9NR96).
T2 construct: host or cells: HEK-Blue cells (HEK293-derived reporter line)
T2 sequence (Q9NR96 26-1032): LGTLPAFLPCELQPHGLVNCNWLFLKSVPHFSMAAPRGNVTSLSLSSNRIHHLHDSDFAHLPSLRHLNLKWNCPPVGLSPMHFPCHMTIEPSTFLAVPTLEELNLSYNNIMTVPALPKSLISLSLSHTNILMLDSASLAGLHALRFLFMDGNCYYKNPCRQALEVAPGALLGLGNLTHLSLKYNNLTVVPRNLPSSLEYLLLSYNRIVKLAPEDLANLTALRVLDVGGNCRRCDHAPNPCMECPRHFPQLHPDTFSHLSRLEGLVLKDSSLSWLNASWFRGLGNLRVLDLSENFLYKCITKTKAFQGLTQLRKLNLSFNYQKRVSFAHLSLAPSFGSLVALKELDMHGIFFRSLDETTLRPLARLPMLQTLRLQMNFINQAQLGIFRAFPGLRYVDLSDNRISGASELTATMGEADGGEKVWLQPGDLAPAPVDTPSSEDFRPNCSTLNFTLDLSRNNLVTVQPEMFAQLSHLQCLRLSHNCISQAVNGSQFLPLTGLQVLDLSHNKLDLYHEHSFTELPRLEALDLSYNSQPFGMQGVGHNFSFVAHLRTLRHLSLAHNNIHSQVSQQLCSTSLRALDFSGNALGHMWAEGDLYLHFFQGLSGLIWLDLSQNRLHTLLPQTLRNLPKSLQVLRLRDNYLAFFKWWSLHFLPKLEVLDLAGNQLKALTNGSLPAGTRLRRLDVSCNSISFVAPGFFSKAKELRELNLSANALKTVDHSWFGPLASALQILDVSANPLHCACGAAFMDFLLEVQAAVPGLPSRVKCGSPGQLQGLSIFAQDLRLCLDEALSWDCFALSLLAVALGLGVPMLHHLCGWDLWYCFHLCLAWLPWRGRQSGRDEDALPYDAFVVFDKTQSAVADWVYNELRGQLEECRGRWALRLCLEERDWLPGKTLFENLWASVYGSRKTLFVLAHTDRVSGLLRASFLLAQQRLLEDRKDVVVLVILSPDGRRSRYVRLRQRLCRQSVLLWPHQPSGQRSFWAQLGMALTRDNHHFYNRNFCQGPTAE
The test is described as follows: TLR9 inhibition reporter assay (HEK-Blue cells, secreted embryonic alkaline phosphatase reporter). To be noted: HEK-Blue cells overexpressing human TLR9, stimulated with ODN2006 5 nM. The method, boiled down:
as §1

The target of the next test is T3, human TLR8 (Homo sapiens, UniProt Q9NR97).
T3 construct: host or cells: HEK-Blue cells (HEK293-derived reporter line)
T3 sequence (Q9NR97 27-1041): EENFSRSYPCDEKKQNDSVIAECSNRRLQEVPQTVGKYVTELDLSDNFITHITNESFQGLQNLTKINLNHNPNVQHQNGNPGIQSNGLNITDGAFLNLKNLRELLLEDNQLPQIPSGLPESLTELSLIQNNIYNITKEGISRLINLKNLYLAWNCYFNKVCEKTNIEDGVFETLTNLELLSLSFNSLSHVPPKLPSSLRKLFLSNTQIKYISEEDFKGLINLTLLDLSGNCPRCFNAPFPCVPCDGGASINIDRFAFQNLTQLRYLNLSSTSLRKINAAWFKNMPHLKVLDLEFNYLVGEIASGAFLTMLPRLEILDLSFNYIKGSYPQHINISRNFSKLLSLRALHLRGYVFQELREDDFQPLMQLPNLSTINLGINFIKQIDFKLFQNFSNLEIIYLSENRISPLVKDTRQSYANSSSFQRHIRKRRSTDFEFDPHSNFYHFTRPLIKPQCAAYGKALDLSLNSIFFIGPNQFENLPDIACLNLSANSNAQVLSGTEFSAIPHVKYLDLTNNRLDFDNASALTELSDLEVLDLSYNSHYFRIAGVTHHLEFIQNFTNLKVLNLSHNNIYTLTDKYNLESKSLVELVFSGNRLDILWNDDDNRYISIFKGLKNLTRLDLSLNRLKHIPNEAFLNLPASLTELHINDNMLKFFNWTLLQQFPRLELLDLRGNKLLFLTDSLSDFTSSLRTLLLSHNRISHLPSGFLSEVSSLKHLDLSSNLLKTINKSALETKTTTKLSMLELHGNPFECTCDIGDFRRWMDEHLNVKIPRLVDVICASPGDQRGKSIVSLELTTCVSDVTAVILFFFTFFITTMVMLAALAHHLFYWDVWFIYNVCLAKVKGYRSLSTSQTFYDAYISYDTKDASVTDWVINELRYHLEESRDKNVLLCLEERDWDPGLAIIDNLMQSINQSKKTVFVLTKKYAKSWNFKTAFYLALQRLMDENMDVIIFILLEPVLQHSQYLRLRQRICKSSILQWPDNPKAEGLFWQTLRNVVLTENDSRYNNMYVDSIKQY
Nature of the test: TLR8 inhibition reporter assay (HEK-Blue cells, secreted embryonic alkaline phosphatase reporter). To be noted: HEK-Blue cells overexpressing human TLR8, stimulated with R848 15.9 μM; read-out: TLR 8 IC50. The method, boiled down:
as §1

Setting [1] is: 22 hour incubation, reporter readout.

This is an account of results in patent US12492188B2, “1H-benzo[D]imidazole derivatives as TLR9 inhibitors for the treatment of fibrosis” (BRISTOL-MYERS SQUIBB COMPANY, priority 2020, dated 2025).

Where two headings read alike, the source gives them in different places.

As for `Cc1cc(-c2nc3c(C)cc(C4CCN(C5CCN(CC(C)C)CC5)CC4)cc3[nH]2)cc(C)n1` [Example 60, 2-(2,6-dimethylpyridin-4-yl)-6-(1′-isobutyl-[1,4′-bipiperidin]-4-yl)-4-methyl-1H-benzo[d]imidazole], the IC50 on human TLR7 was 1.5 µM; against human TLR9 (setting [1]) it was 0.045 µM; at human TLR9 (read-out: TLR 9 IC50) it was 0.045 µM; on human TLR8, > 50 µM.
With `Cc1cc(C2CCN(C3CCN(CC(C)C)CC3)CC2)cc2[nH]c(-c3ccc4c(c3)OCCO4)nc12` [Example 62, 2-(2,3-dihydrobenzo[b][1,4]dioxin-6-yl)-6-(1′-isobutyl-[1,4′-bipiperidin]-4-yl)-4-methyl-1H-benzo[d]imidazole], the IC50 on human TLR7 was 0.74 µM; on human TLR9 (setting [1]), 0.35 µM; at human TLR9 (read-out: TLR 9 IC50) it was 0.345 µM; on human TLR8, > 50 µM.
For the compound `Cc1cc(-c2ccc(N3CCN(C(C)C)CC3)cc2)cc2c1nc(-c1ccc(S(C)(=O)=O)cc1)n2C` [Example 86, 6-(4-(4-isopropylpiperazin-1-yl)phenyl)-1,4-dimethyl-2-(4-(methylsulfonyl)phenyl)-1H-benzo[d]imidazole], the IC50 at human TLR7 was 5.2 µM; on human TLR9 (setting [1]) it was 0.3 µM; at human TLR8 it was > 50 µM.
On the same counts, the results for `CC(C)N1CCC(N2CCC(c3ccc4nc(-c5ccc(S(C)(=O)=O)cc5)[nH]c4c3F)CC2)CC1` [Example 87, 7-fluoro-6-(1′-isopropyl-[1,4′-bipiperidin]-4-yl)-2-(4-(methylsulfonyl)phenyl)-1H-benzo[d]imidazole] are > 50 µM, 0.95 µM and > 50 µM.
Take `CC(C)N1CCC(N2CCC(c3ccc4c(nc(-c5ccc(S(C)(=O)=O)cc5)n4C)c3F)CC2)CC1` [Example 88, 4-fluoro-5-(1′-isopropyl-[1,4′-bipiperidin]-4-yl)-1-methyl-2-(4-(methylsulfonyl)phenyl)-1H-benzo[d]imidazole]: the IC50 at human TLR7 was > 50 µM; against human TLR9 (setting [1]), 0.36 µM; on human TLR9 (read-out: TLR 9 IC50), 0.363 µM; on human TLR8 it was > 50 µM.
As for `CC(C)N1CCC(N2CCC(c3cc(F)c4c(c3)nc(-c3ccc(S(C)(=O)=O)cc3)n4C)CC2)CC1` [Example 91, 7-fluoro-5-(1′-isopropyl-[1,4′-bipiperidin]-4-yl)-1-methyl-2-(4-(methylsulfonyl)phenyl)-1H-benzo[d]imidazole], the IC50 on human TLR7 was 19.4 µM; against human TLR9 (setting [1]), 0.1 µM; at human TLR9 (read-out: TLR 9 IC50) it was 0.104 µM; on human TLR8, > 50 µM.
In the case of `CC(C)N1CCC(N2CCC(c3cc4c(cc3F)nc(-c3ccc(S(C)(=O)=O)cc3)n4C)CC2)CC1` [Example 96, 5-fluoro-6-(1′-isopropyl-[1,4′-bipiperidin]-4-yl)-1-methyl-2-(4-(methylsulfonyl)phenyl)-1H-benzo[d]imidazole], the IC50 on human TLR7 was 7.3 µM; against human TLR9 (setting [1]), 0.073 µM; at human TLR8, > 50 µM.
As for `CC(C)N1CCC(N2CCC(c3cc4nc(-c5ccc(S(C)(=O)=O)cc5)n(C)c4cc3F)CC2)CC1` [Example 99, 6-fluoro-5-(1′-isopropyl-[1,4′-bipiperidin]-4-yl)-1-methyl-2-(4-(methylsulfonyl)phenyl)-1H-benzo[d]imidazole], the IC50 at human TLR7 is 38.3 µM; against human TLR9 (setting [1]), 0.36 µM; on human TLR9 (read-out: TLR 9 IC50) it was 0.358 µM; at human TLR8 it was > 50 µM.
Turning to `CC(C)N1CCC(N2CCC(c3ccc4nc(-c5ccc(S(C)(=O)=O)cc5)n(C)c4c3F)CC2)CC1` [Example 102, 7-fluoro-6-(1′-isopropyl-[1,4′-bipiperidin]-4-yl)-1-methyl-2-(4-(methylsulfonyl)phenyl)-1H-benzo[d]imidazole], the IC50 at human TLR7 was 9.8 µM; on human TLR9 (setting [1]) it was 0.03 µM; on human TLR8, > 50 µM.
On the same counts, the results for `CC(C)N1CCC(N2CCC(c3cc(F)c4nc(-c5ccc(S(C)(=O)=O)cc5)n(C)c4c3)CC2)CC1` [Example 105, 4-fluoro-6-(1′-isopropyl-[1,4′-bipiperidin]-4-yl)-1-methyl-2-(4-(methylsulfonyl)phenyl)-1H-benzo[d]imidazole] are 25.5 µM, 0.095 µM and > 50 µM.
As for `Cc1cc(C2CCN(C3CCN(C(C)C)CC3)CC2)cc2c1nc(-c1ccc(S(N)(=O)=O)cc1)n2C` [Example 112, 4-(6-(1′-isopropyl-[1,4′-bipiperidin]-4-yl)-1,4-dimethyl-1H-benzo[d]imidazol-2-yl)benzenesulfonamide], the IC50 at human TLR7 was > 50 µM; on human TLR9 (setting [1]) it was 0.13 µM; on human TLR9 (read-out: TLR 9 IC50), 0.127 µM; at human TLR8, > 50 µM.
